Experimental data published in PubChem BioAssay (NCI).
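Abbreviation: GI50, concentration required for 50% inhibition of growth. TGI denotes the concentration required for complete inhibition of growth.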

Columns and labels:
Assay in all cases: NCI anticancer screen, dose series, 384-well format
UACC-62 melanoma = system: UACC-62 melanoma
MDA-MB-468 breast = system: MDA-MB-468 breast
U251 glioblastoma = system: U251 glioblastoma
OVCAR-8 ovarian = system: OVCAR-8 ovarian
A498 renal = system: A498 renal
CAKI-1 renal = system: CAKI-1 renal
BT-549 breast = system: BT-549 breast
OVCAR-4 ovarian = system: OVCAR-4 ovarian
SN12C renal = system: SN12C renal
IGROV1 ovarian = system: IGROV1 ovarian
KM12 colon = system: KM12 colon
SK-MEL-28 melanoma = system: SK-MEL-28 melanoma
OVCAR-5 ovarian = system: OVCAR-5 ovarian
ACHN renal = system: ACHN renal
SK-MEL-5 melanoma = system: SK-MEL-5 melanoma
HOP-62 NSCLC = system: HOP-62 NSCLC
SF-539 CNS = system: SF-539 CNS
CCRF-CEM leukemia = system: CCRF-CEM leukemia
MOLT-4 leukemia = system: MOLT-4 leukemia
LOX IMVI melanoma = system: LOX IMVI melanoma
T-47D breast = system: T-47D breast
MDA-MB-231 breast = system: MDA-MB-231 breast
SR leukemia = system: SR leukemia
SK-MEL-2 melanoma = system: SK-MEL-2 melanoma
NCI-H460 NSCLC = system: NCI-H460 NSCLC
DU-145 prostate = system: DU-145 prostate
MCF7 breast = system: MCF7 breast
COLO 205 colon = system: COLO 205 colon
RPMI-8226 leukemia = system: RPMI-8226 leukemia
NCI/ADR-RES ovarian = system: NCI/ADR-RES ovarian
MDA-MB-435 melanoma = system: MDA-MB-435 melanoma
SF-295 CNS = system: SF-295 CNS
RXF 393 renal = system: RXF 393 renal
SF-268 CNS = system: SF-268 CNS
HCC-2998 colon = system: HCC-2998 colon
SNB-19 CNS = system: SNB-19 CNS
NCI-H226 lung = system: NCI-H226 lung
NCI-H322M lung = system: NCI-H322M lung
OVCAR-3 ovarian = system: OVCAR-3 ovarian
SK-OV-3 ovarian = system: SK-OV-3 ovarian
UO-31 renal = system: UO-31 renal
HL-60(TB) leukemia = system: HL-60(TB) leukemia
HCT-15 colon = system: HCT-15 colon
NCI-H23 lung = system: NCI-H23 lung
HOP-92 NSCLC = system: HOP-92 NSCLC
K-562 leukemia = system: K-562 leukemia
HCT-116 colon = system: HCT-116 colon
MALME-3M melanoma = system: MALME-3M melanoma
A549 NSCLC = system: A549 NSCLC
PC-3 prostate = system: PC-3 prostate
NCI-H522 lung = system: NCI-H522 lung
HT29 colon = system: HT29 colon
786-0 renal = system: 786-0 renal
SW-620 colon = system: SW-620 colon
UACC-257 melanoma = system: UACC-257 melanoma
M14 melanoma = system: M14 melanoma
TK-10 renal = system: TK-10 renal

Cc1c(S(C)(=O)=O)c(-c2cc(F)cc(N3CCN(c4ccc(NS(=O)(=O)c5ccc(N[C@H](CCN6CCC(C(=O)OCCCP(=O)(O)O)CC6)CSc6ccccc6)c(S(=O)(=O)C(F)(F)F)c5)cc4)CC3)c2)c(-c2ccc(Cl)cc2)n1C(C)C
GI50 (UACC-62 melanoma): > 100 µM | TGI (UACC-62 melanoma): > 100 µM | GI50 (MDA-MB-468 breast): 73.1 µM | TGI (MDA-MB-468 breast): > 100 µM | GI50 (U251 glioblastoma): > 100 µM | TGI (U251 glioblastoma): > 100 µM | GI50 (OVCAR-8 ovarian): > 100 µM | TGI (OVCAR-8 ovarian): > 100 µM | GI50 (A498 renal): > 100 µM | TGI (A498 renal): > 100 µM | GI50 (CAKI-1 renal): > 100 µM | TGI (CAKI-1 renal): > 100 µM | GI50 (BT-549 breast): > 100 µM | TGI (BT-549 breast): > 100 µM | GI50 (OVCAR-4 ovarian): > 100 µM | TGI (OVCAR-4 ovarian): > 100 µM | GI50 (SN12C renal): > 100 µM | TGI (SN12C renal): > 100 µM | GI50 (IGROV1 ovarian): > 100 µM | TGI (IGROV1 ovarian): > 100 µM | GI50 (KM12 colon): > 100 µM | TGI (KM12 colon): > 100 µM | GI50 (SK-MEL-28 melanoma): > 100 µM | TGI (SK-MEL-28 melanoma): > 100 µM | GI50 (OVCAR-5 ovarian): > 100 µM | TGI (OVCAR-5 ovarian): > 100 µM | GI50 (ACHN renal): > 100 µM | TGI (ACHN renal): > 100 µM | GI50 (SK-MEL-5 melanoma): > 100 µM | TGI (SK-MEL-5 melanoma): > 100 µM | GI50 (HOP-62 NSCLC): > 100 µM | TGI (HOP-62 NSCLC): > 100 µM | GI50 (SF-539 CNS): > 100 µM | TGI (SF-539 CNS): > 100 µM | GI50 (CCRF-CEM leukemia): 0.0412 µM | TGI (CCRF-CEM leukemia): 0.178 µM | GI50 (MOLT-4 leukemia): 0.0152 µM | TGI (MOLT-4 leukemia): 0.0362 µM | GI50 (LOX IMVI melanoma): > 100 µM | TGI (LOX IMVI melanoma): > 100 µM | GI50 (T-47D breast): > 100 µM | TGI (T-47D breast): > 100 µM | GI50 (MDA-MB-231 breast): 0.945 µM | TGI (MDA-MB-231 breast): 15 µM | GI50 (SR leukemia): 0.892 µM | TGI (SR leukemia): > 100 µM | GI50 (SK-MEL-2 melanoma): > 100 µM | TGI (SK-MEL-2 melanoma): > 100 µM | GI50 (NCI-H460 NSCLC): > 100 µM | TGI (NCI-H460 NSCLC): > 100 µM | GI50 (DU-145 prostate): > 100 µM | TGI (DU-145 prostate): > 100 µM | GI50 (MCF7 breast): > 100 µM | TGI (MCF7 breast): > 100 µM | GI50 (COLO 205 colon): > 100 µM | TGI (COLO 205 colon): > 100 µM | GI50 (RPMI-8226 leukemia): 0.0131 µM | TGI (RPMI-8226 leukemia): 0.0361 µM | GI50 (NCI/ADR-RES ovarian): > 100 µM | TGI (NCI/ADR-RES ovarian): > 100 µM | GI50 (MDA-MB-435 melanoma): > 100 µM | TGI (MDA-MB-435 melanoma): > 100 µM | GI50 (SF-295 CNS): > 100 µM | TGI (SF-295 CNS): > 100 µM | GI50 (RXF 393 renal): 0.12 µM | TGI (RXF 393 renal): 30.3 µM | GI50 (SF-268 CNS): > 100 µM | TGI (SF-268 CNS): > 100 µM | GI50 (HCC-2998 colon): 0.425 µM | TGI (HCC-2998 colon): 15.6 µM | GI50 (SNB-19 CNS): > 100 µM | TGI (SNB-19 CNS): > 100 µM | GI50 (NCI-H226 lung): > 100 µM | TGI (NCI-H226 lung): > 100 µM | GI50 (NCI-H322M lung): > 100 µM | TGI (NCI-H322M lung): > 100 µM | GI50 (OVCAR-3 ovarian): > 100 µM | TGI (OVCAR-3 ovarian): > 100 µM | GI50 (SK-OV-3 ovarian): > 100 µM | TGI (SK-OV-3 ovarian): > 100 µM | GI50 (UO-31 renal): > 100 µM | TGI (UO-31 renal): > 100 µM | GI50 (HL-60(TB) leukemia): > 100 µM | TGI (HL-60(TB) leukemia): > 100 µM | GI50 (HCT-15 colon): > 100 µM | TGI (HCT-15 colon): > 100 µM | GI50 (NCI-H23 lung): > 100 µM | TGI (NCI-H23 lung): > 100 µM | GI50 (HOP-92 NSCLC): 0.0429 µM | TGI (HOP-92 NSCLC): 0.739 µM | GI50 (K-562 leukemia): > 100 µM | TGI (K-562 leukemia): > 100 µM | GI50 (HCT-116 colon): > 100 µM | TGI (HCT-116 colon): > 100 µM | GI50 (MALME-3M melanoma): > 100 µM | TGI (MALME-3M melanoma): > 100 µM | GI50 (A549 NSCLC): > 100 µM | TGI (A549 NSCLC): > 100 µM | GI50 (PC-3 prostate): > 100 µM | TGI (PC-3 prostate): > 100 µM | GI50 (NCI-H522 lung): > 100 µM | TGI (NCI-H522 lung): > 100 µM | GI50 (HT29 colon): > 100 µM | TGI (HT29 colon): > 100 µM | GI50 ([…]-0 renal): > 100 µM | TGI (786-0 renal): > 100 µM | GI50 (SW-620 colon): > 100 µM | TGI (SW-620 colon): > 100 µM | GI50 (UACC-257 melanoma): > 100 µM | TGI (UACC-257 melanoma): > 100 µM | GI50 (M14 melanoma): > 100 µM | TGI (M14 melanoma): > 100 µM | GI50 (TK-10 renal): > 100 µM | TGI (TK-10 renal): > 100 µM
